Common to all, as to test: NCI anticancer screen, dose series, 48 h
Assay [1] deals with 786-0.
In assay [2] the test system is ACHN.
In assay [3] the test system is BT-549.
Assay [4] concerns HL-60.
Assay [5] deals with HOP-92.
Assay [6] has as its system HT-29.
The subject of assay [7] is Hs-578T.
Assay [8] concerns IGROV-1.
Assay [9] has as its system LOX IMVI.
The subject of assay [10] is M14.
Assay [11] relates to NCI-H23.
In assay [12] the test system is NCI-H460.
For assay [13], the system named is SF-268.
Assay [14] deals with SF-539.
Assay [15] deals with SN12C.
Assay [16] has as its system SNB-75.
The subject of assay [17] is SR.
Assay [18] deals with UACC-62.
In assay [19] the test system is SF-295.

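Exposure lasted 48 hours, with cells grown in 96-well plates and compounds tested at five concentrations. GI50: concentration for 50% inhibition of growth.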 The source made the active and inactive calls. No stated cut-off is given here; in the data, active = GI50 up to about 1.1 µM and inactive = higher.

As to `CN(C)c1ccc(/C=N/c2ccc(-c3nc4ccccc4o3)cc2)cc1`, the GI50 was 50.6 µM (inactive) in assay [1]; 54.3 µM (inactive) in [2]; 32.4 µM (inactive) in [3]; 20.8 µM (inactive) in assay [4]; 70.3 µM (inactive) in assay [5]; 56.2 µM (inactive) in [6]. In addition, the GI50 in assay [7] is > 100 µM (inactive); in [8] it was 42.6 µM (inactive); in assay [9] it was 35.2 µM (inactive); in assay [10], 58.5 µM (inactive); in assay [11] it was 32.7 µM (inactive); in [12], 28.8 µM (inactive). For the same compound, the GI50 in assay [13] is 79.1 µM (inactive); in assay [14] it was 40.8 µM (inactive); in assay [15] it was 60.8 µM (inactive); in assay [16], 54.7 µM (inactive); in assay [17] it was 36 µM (inactive); in assay [18] it was 38.7 µM (inactive).

`[N-]=[N+]=C1C(=O)c2ccccc2-c2ccccc21`: the GI50 in [1] is 26.1 µM (inactive); in assay [2], 38.6 µM (inactive); in assay [3] it was 34.4 µM (inactive); in [4], 28.8 µM (inactive); in [5] it was 33.3 µM (inactive); in assay [6], 34.8 µM (inactive). Besides, the GI50 was 33 µM (inactive) in assay [7]; 33 µM (inactive) in [8]; 25.9 µM (inactive) in assay [9]; 44.6 µM (inactive) in assay [10]; 35 µM (inactive) in [11]; 32.1 µM (inactive) in assay [12]. Besides, the GI50 in assay [13] is 33.3 µM (inactive); in [19], 33 µM (inactive); in assay [14] it was 24.6 µM (inactive); in assay [15], 35.2 µM (inactive); in [16], 20 µM (inactive); in assay [17] it was 24.5 µM (inactive). For the same compound, the GI50 in assay [18] is 22.3 µM (inactive).

`ClCCN1CCOC1=C1C=CC=C1`: the GI50 in assay [1] is > 100 µM (inactive); in assay [2] it was > 100 µM (inactive); in [3], > 100 µM (inactive); in assay [4], 96.6 µM (inactive); in assay [5] it was > 100 µM (inactive); in [6], > 100 µM (inactive). The GI50 is > 100 µM (inactive) in assay [7]; 14 µM (inactive) in [8]; > 100 µM (inactive) in assay [9]; > 100 µM (inactive) in assay [10]; > 100 µM (inactive) in assay [11]; > 100 µM (inactive) in [12]. Besides, the GI50 is > 100 µM (inactive) in assay [13]; > 100 µM (inactive) in [19]; > 100 µM (inactive) in assay [14]; > 100 µM (inactive) in [15]; > 100 µM (inactive) in assay [16]; 19.3 µM (inactive) in assay [17].

For `Fc1ccc2nc3n(c2c1)C(c1c(Cl)cccc1Cl)SC3` (stereo not drawn), the GI50 in assay [1] is > 100 µM (inactive); in assay [2] it was > 100 µM (inactive); in assay [3], > 100 µM (inactive); in [5], 50.4 µM (inactive); in assay [6], > 100 µM (inactive); in assay [7], > 100 µM (inactive). The GI50 in [8], in assay [9], in [10], in assay [11], in [12] and in assay [13] was > 100 µM (inactive) throughout. The GI50 was > 100 µM (inactive) in assay [19]; > 100 µM (inactive) in [14]; > 100 µM (inactive) in assay [15]; 63.4 µM (inactive) in [16]; 4.3 µM (inactive) in assay [17]; > 100 µM (inactive) in assay [18].

Take `Cc1ccc(C(=O)N/N=C(\N=N\c2ccc([N+](=O)[O-])cc2)c2ccc(N(CCC#N)CCC#N)cc2C)cc1`: the GI50 in assay [1] is 73.5 µM (inactive); in [2], > 100 µM (inactive); in [3], 47.1 µM (inactive); in assay [4], 30.2 µM (inactive); in assay [5], > 100 µM (inactive); in assay [6], 34.3 µM (inactive). Further, the GI50 in [7] is 50.1 µM (inactive); in [8], 66.8 µM (inactive); in [9] it was 60.8 µM (inactive); in assay [10] it was 58.3 µM (inactive); in assay [11], > 100 µM (inactive); in [12], 79.3 µM (inactive). For the same compound, the GI50 was > 100 µM (inactive) in assay [13]; 57.9 µM (inactive) in [19]; > 100 µM (inactive) in [14]; > 100 µM (inactive) in [15]; 43.7 µM (inactive) in [16]; 63.8 µM (inactive) in assay [17].

Turning to `CCOC(=O)c1cc(-c2ccc(OC)cc2)c([N+](=O)[O-])[nH]1`, the GI50 in [1], in assay [2], in assay [3], in [4], in assay [5] and in assay [6] was > 10 µM (inactive) each time. Also, the GI50 in assay [7], in [8], in assay [10], in assay [11], in [12] and in assay [13] was > 10 µM (inactive) each time. The GI50 is > 10 µM (inactive) in assay [19]; > 10 µM (inactive) in assay [14]; > 10 µM (inactive) in assay [15]; > 10 µM (inactive) in [16]; > 10 µM (inactive) in [17]; 7.78 µM (inactive) in [18].

`Nc1nc2ncc(SCc3ccc(C(=O)NC(CCC(=O)O)C(=O)O)cc3)cc2c(=O)[nH]1` (stereo not drawn): the GI50 in [1], in assay [2], in assay [3], in assay [4], in [5] and in assay [6] was > 100 µM (inactive) throughout. Besides, the GI50 in [7], in assay [8], in assay [9], in assay [10], in assay [11] and in assay [12] was > 100 µM (inactive) each time. Also, the GI50 in assay [13], in assay [19], in [14], in [15], in assay [17] and in assay [18] was > 100 µM (inactive) each time.

As to `CC1(C)C2CCC1(C)C(NC(=O)COCCOCC(N)=O)C2` (stereo not drawn), the GI50 was > 100 µM (inactive) in [1]; > 100 µM (inactive) in assay [2]; > 100 µM (inactive) in assay [3]; 56.2 µM (inactive) in assay [4]; > 100 µM (inactive) in assay [5]; > 100 µM (inactive) in assay [6]. Moreover, the GI50 in assay [7], in [8], in [10], in assay [11], in assay [12] and in assay [13] was > 100 µM (inactive) in each case. For the same compound, the GI50 in [19] is > 100 µM (inactive); in assay [14], > 100 µM (inactive); in assay [15] it was > 100 µM (inactive); in assay [16] it was > 100 µM (inactive); in assay [17], 31.1 µM (inactive); in [18], > 100 µM (inactive).

Consider `CCOC(=O)c1sc2nc(SC)nc(Nc3ccc(OC)c(OC)c3)c2c1N`, for which the GI50 in assay [1] is 5.51 µM (inactive); in [2], 13.2 µM (inactive); in [3] it was 17.7 µM (inactive); in assay [4] it was > 100 µM (inactive); in assay [5], 9.89 µM (inactive); in assay [6], 78 µM (inactive). Moreover, the GI50 in [7] was 17.7 µM (inactive); in assay [8], > 100 µM (inactive); in assay [9], > 100 µM (inactive); in assay [10], 42.4 µM (inactive); in assay [11], 3.52 µM (inactive); in [12], < 0.01 µM (active). The GI50 in assay [13] was 14.3 µM (inactive); in assay [19], 6.9 µM (inactive); in assay [14] it was 1.58 µM (inactive); in [15], 60.3 µM (inactive); in [17] it was 20.9 µM (inactive); in [18], 4.74 µM (inactive).

Turning to `C=C(Cl)C(Cl)(CBr)CCC(Br)C(C)(C)Br` (stereo not drawn), the GI50 was 1.14 µM (inactive) in assay [1]; 2.62 µM (inactive) in assay [2]; 7.66 µM (inactive) in assay [3]; 2.19 µM (inactive) in assay [4]; 2.76 µM (inactive) in assay [5]; 1.07 µM (active) in assay [6]. Further, the GI50 is 2.96 µM (inactive) in [7]; 18.2 µM (inactive) in [8]; 15.3 µM (inactive) in assay [9]; 16.3 µM (inactive) in assay [10]; 14.2 µM (inactive) in [11]; 1.72 µM (inactive) in assay [12]. The GI50 is 3.22 µM (inactive) in assay [13]; 2 µM (inactive) in assay [19]; 1.99 µM (inactive) in assay [14]; 7.28 µM (inactive) in [15]; 2.12 µM (inactive) in assay [16]; 13.4 µM (inactive) in assay [17]. The GI50 in assay [18] was 9.93 µM (inactive).

Take `O=S(=O)(O)c1ccc(/N=N\c2c(O)ccc3cc(Br)ccc23)cc1`: the GI50 in assay [1], in assay [2], in assay [3], in assay [5], in assay [6] and in assay [7] was > 100 µM (inactive) each time. The GI50 in assay [8], in assay [9], in [10], in assay [11], in assay [13] and in assay [19] was > 100 µM (inactive) in each case. The GI50 in assay [15], in assay [16], in assay [17] and in assay [18] was > 100 µM (inactive) in each case.

Source of the values: ChEMBL document CHEMBL1201862, “PubChem BioAssay data set” (2004).
